From patent US6794560B2, “Nucleic acid encoding GAI gene of Arabidopsis thaliana” (Pioneer Hi-Bred International, Inc., priority 1996, dated 2004)

How the values were obtained:
kaurene oxidase reaction = target: T1, kaurene oxidase reaction (Arabidopsis thaliana, UniProt Q93ZB2); details: cited from earlier work
T1 sequence (Q93ZB2 1-509): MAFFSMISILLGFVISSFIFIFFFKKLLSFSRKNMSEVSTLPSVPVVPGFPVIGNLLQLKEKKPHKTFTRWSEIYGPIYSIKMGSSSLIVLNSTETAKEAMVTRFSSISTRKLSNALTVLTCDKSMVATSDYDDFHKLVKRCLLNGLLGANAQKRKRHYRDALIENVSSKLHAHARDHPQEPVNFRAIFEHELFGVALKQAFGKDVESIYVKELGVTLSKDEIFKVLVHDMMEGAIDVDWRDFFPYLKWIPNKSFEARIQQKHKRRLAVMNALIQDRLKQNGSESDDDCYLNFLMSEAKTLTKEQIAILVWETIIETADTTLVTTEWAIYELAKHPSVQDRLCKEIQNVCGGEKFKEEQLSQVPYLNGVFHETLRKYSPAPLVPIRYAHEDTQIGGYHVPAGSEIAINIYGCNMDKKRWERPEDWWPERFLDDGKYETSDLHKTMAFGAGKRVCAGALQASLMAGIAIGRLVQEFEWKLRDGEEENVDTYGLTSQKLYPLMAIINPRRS

gai-t6 mutant = test: growth on medium containing paclobutrazol; type: in vivo, Arabidopsis thaliana; details: grown on medium containing paclobutrazol
Text: The slender mutants of pea and barley are resistant to the dwarfing effects of paclobutrazol^38-42, as is the Arabidopsis constitutive GA-response mutant spy^43,44. Thus, in these mutants stem elongation is at least partially uncoupled from the GA-mediated control characteristic of normal plants. […] Put another way, a GAI null mutant appears to require less endogenous GA to achieve a certain degree of growth than does a normal plant. GA-dependency is not completely abolished by gai-t6 possibly because the products of genes related in sequence to GAI (see above) can substantially, but not completely, compensate for loss of GAI function.

plants = details: reduces endogenous GA levels; cited from earlier work
gai mutants = details: cited from earlier work
[1] = system: stimulation of cell elongation, leaf senescence or elicitation of the cereal aleurone α-amylase response; details: structure-activity statement; cited from earlier work

SMILES	response of gai mutants to GA treatment (gai mutants)	biological activity of gibberellin [1]	further results
CC(C)(C)[C@@H](O)[C@@H](Cc1ccc(Cl)cc1)n1cncn1 (racemic) [Paclobutrazol]			inhibition of GA biosynthesis (kaurene oxidase reaction): specifically inhibits GA biosynthesis; floral bolt stem length of gai-t6 mutants vs GAI control plants (gai-t6 mutant): longer floral bolt stems than GAI control plants; phenotype of plants exposed (plants): conferring a dwarf phenotype
C=C1C[C@]23C[C@@]1(O)CC[C@H]2[C@@]12CC[C@H](O)[C@@](C)(C(=O)O1)[C@H]2[C@@H]3C(=O)O [GA1]	do not respond	high biological activity	
C=C1C[C@]23C[C@@]1(O)CC[C@H]2[C@@]12C=C[C@H](O)[C@@](C)(C(=O)O1)[C@H]2[C@@H]3C(=O)O [GA3]	do not respond		
C=C1C[C@]23C[C@H]1CC[C@H]2[C@@]12CC[C@H](O)[C@@](C)(C(=O)O1)[C@H]2[C@@H]3C(=O)O [GA4]	do not respond	high biological activity	
C=C1C[C@]23C[C@H]1CC[C@H]2[C@@]12C=C[C@H](O)[C@@](C)(C(=O)O1)[C@H]2[C@@H]3C(=O)O [GA7]		high biological activity	
C=C1C[C@]23C[C@@]1(O)CC[C@H]2[C@@]12C[C@H](O)[C@H](O)[C@@](C)(C(=O)O1)[C@H]2[C@@H]3C(=O)O [GA8]		inactivity	
C=C1C[C@]23C[C@@]1(O)CC[C@H]2[C@@]12C[C@H](O)C[C@@](C)(C(=O)O1)[C@H]2[C@@H]3C(=O)O [GA29]		inactivity	
C=C1C[C@]23C[C@H]1CC[C@H]2[C@@]12C[C@H](O)[C@H](O)[C@@](C)(C(=O)O1)[C@H]2[C@@H]3C(=O)O [GA34]		inactivity	
C=C1C[C@]23C[C@H]1CC[C@H]2[C@@]12C[C@H](O)C[C@@](C)(C(=O)O1)[C@H]2[C@@H]3C(=O)O [GA51]		inactivity	
